# Results as given in paper PMC4744546 (Pharmaceutical research, 2015).
# Where two headings read alike, the source gives them in different places.
# Experiments:
# BCRP [1] = molecular target: T1, BCRP (Homo sapiens, UniProt Q9UNQ0); assay: Effect of curcumin on BCRP-mediated efflux; assay type: cell-based; conditions: UGT1A9-overexpressing HeLa cells
# T1 sequence (Q9UNQ0 1-655): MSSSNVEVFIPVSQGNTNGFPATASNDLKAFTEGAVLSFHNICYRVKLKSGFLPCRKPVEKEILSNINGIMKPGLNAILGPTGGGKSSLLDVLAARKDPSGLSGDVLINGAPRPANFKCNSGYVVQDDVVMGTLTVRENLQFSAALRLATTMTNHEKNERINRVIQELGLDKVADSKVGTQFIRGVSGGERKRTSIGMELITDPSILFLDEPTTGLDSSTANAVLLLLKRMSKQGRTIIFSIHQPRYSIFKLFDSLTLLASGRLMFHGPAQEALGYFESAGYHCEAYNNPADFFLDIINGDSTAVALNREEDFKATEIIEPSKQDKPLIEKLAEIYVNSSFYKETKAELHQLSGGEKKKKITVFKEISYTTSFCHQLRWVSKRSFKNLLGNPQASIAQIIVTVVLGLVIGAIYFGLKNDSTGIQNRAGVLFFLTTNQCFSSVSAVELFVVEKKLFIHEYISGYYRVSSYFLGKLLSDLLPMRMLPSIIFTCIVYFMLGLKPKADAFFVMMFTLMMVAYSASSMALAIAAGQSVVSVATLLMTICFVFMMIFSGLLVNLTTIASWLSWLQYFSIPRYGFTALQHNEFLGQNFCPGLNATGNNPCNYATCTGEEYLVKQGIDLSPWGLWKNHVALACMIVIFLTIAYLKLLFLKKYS
# human MRP2 = human MRP2 (Homo sapiens, UniProt Q92887); assay: Effect of curcumin on MRP2-mediated efflux; assay type: cell-based; conditions: MRP2-overexpressing MDCK II-UGT1A1 cells
# [2] = tested on: human MRP2-overexpressing MDCK II-UGT1A1 cells; assay: Effect of curcumin on fmet of resveratrol conjugates in MDCK II cells; assay type: cell-based; conditions: 4 h
# BCRP [3] = conditions: oral sulfasalazine, curcumin pretreatment vs none, ref [37]; cited from earlier work
# [4] = Pharmacokinetic study of oral resveratrol with or without curcumin in Bcrp1; assay type: in vivo, Bcrp1 (−/−) mice (FVB background); conditions: for Cmax / Tmax / half-life: FVB, mouse, whole blood, po, 20 mg/kg, oral resveratrol 20mg/kg; for Cmax: blood
# [5] = assay type: in vivo, FVB wild-type mice
# [6] = humans; ref [16]; cited from earlier work
# colon cancer cell lines = conditions: ref [18]; cited from earlier work
# [7] = Characterization of resveratrol metabolites in pooled human liver S9 fraction; assay type: in vitro ADME
# [8] = curcumin 50nM, resveratrol […], 4 h, p<0.01
# [9] = curcumin 50nM, resveratrol […], 4 h, p<0.05
# [10] = FVB, mouse, whole blood, po, 20 mg/kg
# [11] = WT mice with curcumin vs without, resveratrol 20mg/kg oral
# Chain of human MRP2 (Q92887 whole entry): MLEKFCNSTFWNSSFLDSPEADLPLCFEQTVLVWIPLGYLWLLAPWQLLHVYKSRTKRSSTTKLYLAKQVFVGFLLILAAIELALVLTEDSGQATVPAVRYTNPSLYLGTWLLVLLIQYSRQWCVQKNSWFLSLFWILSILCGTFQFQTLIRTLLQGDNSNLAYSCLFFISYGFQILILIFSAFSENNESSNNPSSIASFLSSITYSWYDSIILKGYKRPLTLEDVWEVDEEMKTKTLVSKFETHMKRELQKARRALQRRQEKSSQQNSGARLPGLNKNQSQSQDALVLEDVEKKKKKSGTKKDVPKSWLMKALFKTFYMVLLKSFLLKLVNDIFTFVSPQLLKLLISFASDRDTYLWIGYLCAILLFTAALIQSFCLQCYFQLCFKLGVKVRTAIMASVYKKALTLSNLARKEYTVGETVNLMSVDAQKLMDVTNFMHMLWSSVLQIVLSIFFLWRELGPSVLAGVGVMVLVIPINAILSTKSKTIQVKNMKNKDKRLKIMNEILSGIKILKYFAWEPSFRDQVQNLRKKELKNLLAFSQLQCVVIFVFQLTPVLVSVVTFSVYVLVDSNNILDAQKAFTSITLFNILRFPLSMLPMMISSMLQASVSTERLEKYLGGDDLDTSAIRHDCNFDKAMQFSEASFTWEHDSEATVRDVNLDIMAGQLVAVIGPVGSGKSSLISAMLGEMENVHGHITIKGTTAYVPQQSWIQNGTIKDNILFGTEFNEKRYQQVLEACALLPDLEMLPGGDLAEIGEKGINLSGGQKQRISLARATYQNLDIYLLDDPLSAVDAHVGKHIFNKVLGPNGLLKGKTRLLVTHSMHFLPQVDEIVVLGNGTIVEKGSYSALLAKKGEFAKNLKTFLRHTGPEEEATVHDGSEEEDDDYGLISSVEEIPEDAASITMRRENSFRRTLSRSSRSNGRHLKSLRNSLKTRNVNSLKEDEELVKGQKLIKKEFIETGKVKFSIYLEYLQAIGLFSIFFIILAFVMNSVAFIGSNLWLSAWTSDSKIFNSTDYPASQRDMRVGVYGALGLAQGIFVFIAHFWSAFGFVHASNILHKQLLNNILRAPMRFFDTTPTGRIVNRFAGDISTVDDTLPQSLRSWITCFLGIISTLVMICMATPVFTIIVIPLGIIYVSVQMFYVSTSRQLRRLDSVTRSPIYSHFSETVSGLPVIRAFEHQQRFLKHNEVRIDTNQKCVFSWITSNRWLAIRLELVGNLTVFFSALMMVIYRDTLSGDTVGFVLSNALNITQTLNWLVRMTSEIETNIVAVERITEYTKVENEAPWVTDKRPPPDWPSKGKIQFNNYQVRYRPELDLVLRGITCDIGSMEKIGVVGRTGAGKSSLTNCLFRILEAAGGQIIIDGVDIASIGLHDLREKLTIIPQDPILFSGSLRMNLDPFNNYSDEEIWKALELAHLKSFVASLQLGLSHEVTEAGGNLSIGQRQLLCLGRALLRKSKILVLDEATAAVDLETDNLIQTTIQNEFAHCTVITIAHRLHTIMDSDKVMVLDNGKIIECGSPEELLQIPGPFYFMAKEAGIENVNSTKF
compound,measurement,setting,value
"COc1cc(/C=C/C(=O)CC(=O)/C=C/c2ccc(O)c(OC)c2)ccc1O [curcumin, diferuoyl methane]",decrease of CL of RES-3-O-G,BCRP [1]; [8],28%
same,decrease of CL of RES-3-O-S,BCRP [1]; [9],35%
same,inhibitory effect on CL at higher concentration,BCRP [1]; curcumin 100nM vs 50nM,no greater extent of inhibitory effect
same,inhibitory effect on CL of RES-4′-G,"BCRP [1]; curcumin 100nM, 50nM, resveratrol […], 4 h",did not show any significant inhibitory effect
same,reduction of CL of RES-3-O-G,"human MRP2; curcumin 50nM, resveratrol […], 4 h, p<0.001",46%
same,reduction of CL of RES-4′-O-G,human MRP2; [8],50%
same,reduction of CL of RES-3-O-S,human MRP2; [9],53%
same,reduction of CL of RES-4′-O-S,human MRP2; [9],54%
same,inhibitory effect on CL at higher concentration,human MRP2; curcumin 100nM vs 50nM,no greater concentration-dependent inhibitory effect
same,decrease in fmet of RES-4′-O-G,"[2]; curcumin 200nM, p<0.05",~20%
same,reduction in fmet of RES-3-O-G,"[2]; curcumin 200nM, p>0.05",~12%
same,decrease in fmet of RES-4′-O-G,"[2]; curcumin 500nM, p<0.01",approximately 24%
same,reduction in fmet of RES-3-O-G,"[2]; curcumin 500nM, p<0.05",~14%
same,decrease in fmet of RES-4′-O-G,"[2]; curcumin 1000nM, p<0.01",about 33%
same,reduction in fmet of RES-3-O-G,"[2]; curcumin 1000nM, p<0.05",approximately 24%
same,change in fmet values for all metabolites,"[2]; lower concentrations of curcumin (100nM, 50nM)",no significant change
"O=C(O)c1cc(/N=N/c2ccc(S(=O)(=O)Nc3ccccn3)cc2)ccc1O [SASP, sulfasalazine]",plasma level in mice pretreated with curcumin,BCRP [3],two folds higher
"Oc1ccc(/C=C/c2cc(O)cc(O)c2)cc1 [Resveratrol, trans-3,5,4′-trihydroxystilbene]",Cmax,[4]; Bcrp1 (−/−) with curcumin,390 ± 170 nM
same,Cmax,[4]; Bcrp1 (−/−) without curcumin,790 ± 440 nM
same,Tmax,[4]; Bcrp1 (−/−) without curcumin,0.31 ± 0.12 h
same,change in AUC with curcumin,[4]; curcumin-treated vs curcumin-untreated Bcrp1 (−/−) mice,decreased moderately
same,Cmax,[5]; [10],600 ± 260 nM
same,increase of AUC with curcumin,[5]; [11],2 fold
same,increase of maximum blood concentration (Cmax) with curcumin,[5]; [11],~100%
"O=S(=O)(O)Oc1cc(O)cc(C=Cc2ccc(O)cc2)c1 [R-3-S, resveratrol-3-O-sulfate]",Cmax,[4]; Bcrp1 (−/−) with curcumin,1800 ± 170 nM
same,Cmax,[4]; Bcrp1 (−/−) without curcumin,2400 ± 980 nM
same,Tmax,[4]; Bcrp1 (−/−) with curcumin,0.25 h
same,Tmax,[4]; Bcrp1 (−/−) without curcumin,0.25 h
same,half-life,"[4]; t1/2, Bcrp1 (−/−) with curcumin",5.82 ± 2.55 h
same,half-life,"[4]; t1/2, Bcrp1 (−/−) without curcumin",4.41 ± 0.44 h
same,peak plasma levels relative to that of resveratrol,[6],3- to 8 fold
same,Cmax,[5]; [10],1320 ± 710 nM
same,Tmax,"[5]; FVB, mouse, whole blood, po, 20 mg/kg, Tmax, WT with curcumin, oral resveratrol 20mg/kg",0.31 ± 0.12 h
same,half-life,"[5]; FVB, mouse, whole blood, po, 20 mg/kg, t1/2, WT control, oral resveratrol 20mg/kg without curcumin",3.77 ± 1.74 h
same,half-life,"[5]; FVB, mouse, whole blood, po, 20 mg/kg, t1/2, WT with curcumin, oral resveratrol 20mg/kg",9.32 ± 5.64 h
"O=C(O)[C@H]1O[C@@H](Oc2cc(O)cc(/C=C/c3ccc(O)cc3)c2)[C@H](O)[C@@H](O)[C@@H]1O [R-3-G, resveratrol-3-O-glucuronide]",IC50 of cell growth inhibition compared to parent compound,colon cancer cell lines,comparable
"O=C(O)[C@H]1O[C@@H](Oc2ccc(/C=C/c3cc(O)cc(O)c3)cc2)[C@H](O)[C@@H](O)[C@@H]1O [RES-4′-O-G, resveratrol-4′-O-glucuronide]",amount of metabolite generated relative to the 3-O conjugate,[7],about one fifth
same,IC50 of cell growth inhibition compared to parent compound,colon cancer cell lines,comparable
same,peak plasma levels relative to that of resveratrol,[6],3- to 8 fold
